Laboratory results published in patent US11639350B2, “Heteroaryldihydropyrimidine derivatives and methods of treating hepatitis B infections” (Janssen Pharmaceutica NV, priority 2018, dated 2023).
Like-named read-outs stand apart in the source and are kept apart here.

What was measured:
[1] = Cytotoxicity determination in HepG2.2.15 cells (CCK-8); type: cell-based; conditions: human, 6 days of compound treatment, CCK-8, highest concentration 100 μM
Method in brief: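 HepG2.2.15 cells seeded at 5,000 cells/well in 2% FBS medium, incubated overnight at 37° C., then treated 6 days with compounds (8 points, 3-fold dilutions, top 100 μM), medium refreshed once midway. CCK-8 added for 2.5 h; A450 read against 630 nm reference; CC50 calculated, averaged over repeats.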

HBV = HBV inhibitory activity: HBV DNA in the culture medium of HepG2.2.15 cells by q-PCR; type: cell-based; conditions: HepG2.2.15 cells, 6 days of compound treatment, HBV DNA in culture medium by q-PCR, highest concentration 10 μM, read-out: EC50
Method in brief: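 HepG2.2.15 cells in 2% FBS medium, 40,000 per well, treated 6 days with compound (medium refreshed once), eight 3-fold dilutions from 10 μM top. HBV DNA extracted from culture medium and quantified by q-PCR; EC50 averaged over repeats. Cytotoxicity run in parallel at 5,000 cells per well, top 100 μM, giving CC50.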

[2] = Hepatitis B virus, HepG2.2.15, 144 h

| SMILES | CC50 at 6 days [1] | EC50 (HBV; [2]) | EC50 (HBV) |
| --- | --- | --- | --- |
| COC(=O)C1=C(C2CCN(S(C)(=O)=O)CC2)NC(c2nccs2)=NC1c1ccc(F)c(F)c1Cl (single isomer, unassigned) [Compound 59B, Methyl 4-(2-chloro-3,4-difluorophenyl)-6-(1-(methylsulfonyl)-piperidin-4-yl)-2-(thiazol-2-yl)-1,4-dihydropyrimidine-5-carboxylate] | 27.9 µM | 388 nM | – |
| COC(=O)C1=C(C2CCCN2S(C)(=O)=O)NC(c2nccs2)=NC1c1ccc(F)cc1Cl (single isomer, unassigned) [Compound 69C, Methyl 4-(2-chloro-4-fluorophenyl)-6-(1-(methylsulfonyl)-pyrrolidin-2-yl)-2-(thiazol-2-yl)-1,4-dihydropyrimidine-5-carboxylate] | 11.9 µM | 448 nM | – |
| COC(=O)C1=C(C2CCCO2)NC(c2nccs2)=NC1c1ccc(F)cc1Cl (single isomer, unassigned) [Compound 70D, Methyl 4-(2-chloro-4-fluorophenyl)-6-(tetrahydrofuran-2-yl)-2-(thiazol-2-yl)-1,4-dihydropyrimidine-5-carboxylate] | 22.6 µM | 140 nM | – |
| COC(=O)C1=C(C2CCC(C(=O)O)C2)NC(c2nccs2)=NC1c1ccc(F)cc1Cl (single isomer, unassigned) [Compound 72C, 3-(6-(2-Chloro-4-fluorophenyl)-5-(methoxycarbonyl)-2-(thiazol-2-yl)-3,6-dihydropyrimidin-4-yl)cyclopentanecarboxylic Acid] | 22.1 µM | – | 475 nM |
| COC(=O)C1=C([C@H]2CC[C@@H](C(=O)OC)O2)NC(c2nccs2)=NC1c1cccc(F)c1Cl (single isomer, unassigned) [Compound 73H, cis-Methyl 4-(2-chloro-3-fluorophenyl)-6-(5-(methoxycarbonyl)-tetrahydro-furan-2-yl)-2-(thiazol-2-yl)-1,4-dihydropyrimidine-5-carboxylate] | 32.9 µM | 350 nM | – |
| COC(=O)C1=C(C2CN(S(C)(=O)=O)C2)NC(c2nccs2)=NC1c1ccc(F)cc1Cl (single isomer, unassigned) [Compound 84A, 4-(2-Chloro-4-fluoro-phenyl)-6-(1-methanesulfonyl-azetidin-3-yl)-2-thiazol-2-yl-1,4-dihydro-pyrimidine-5-carboxylic Acid Methyl Ester] | 29 µM | 118 nM | – |
| COC(=O)C1=C(C2CC(C(=O)OC)C2)NC(c2nccs2)=NC1c1ccc(F)cc1Cl (single isomer, unassigned) [Compound 85C, 4-(2-Chloro-4-fluoro-phenyl)-6-(3-methoxycarbonyl-cyclobutyl)-2-thiazol-2-yl-1,4-dihydro-pyrimidine-5-carboxylic Acid Methyl Ester] | 95.4 µM | 600 nM | – |
| COC(=O)C1=C([C@H]2C[C@H](NC(C)=O)C2)NC(c2nccs2)=NC1c1ccc(F)cc1Cl (single isomer, unassigned) [Compound 89R, trans-Methyl 6-(3-acetamidocyclobutyl)-4-(2-chloro-4-fluoro-phenyl)-2-(thiazol-2-yl)-1,4-dihydropyrimidine-5-carboxylate] | 17.2 µM | 112 nM | – |
| COC(=O)C1=C(C2CC2)NC(c2nccs2)=NC1c1ccc(F)cc1Cl (single isomer, unassigned) [Compound 90A, Methyl 4-(2-chloro-4-fluorophenyl)-6-cyclopropyl-2-(thiazol-2-yl)-1,4-dihydropyrimidine-5-carboxylate] | 26.7 µM | 23 nM | – |
| CCOC(=O)C1=C([C@@H]2C[C@H]2CC(=O)O)NC(c2nccs2)=NC1c1ccc(F)cc1Cl (single isomer, unassigned) [Compound 92, 2-(trans-2-(6-(2-Chloro-4-fluorophenyl)-5-(ethoxycarbonyl)-2-(thiazol-2-yl)-3,6-dihydropyrimidin-4-yl)cyclopropyl)acetic Acid] | 99 µM | 326 nM | – |
| COC(=O)C1=C(C2CCCN(S(C)(=O)=O)C2)NC(c2nccs2)=NC1c1cccc(F)c1Cl (single isomer, unassigned) [Compound 98A, Methyl 4-(2-chloro-3-fluorophenyl)-6-(1-(methylsulfonyl)piperidin-3-yl)-2-(thiazol-2-yl)-1,4-dihydropyrimidine-5-carboxylate] | 11.4 µM | 270 nM | – |
| COC(=O)C1=C(C2CCN(S(=O)(=O)C3COC3)CC2)NC(c2nccs2)=NC1c1ccc(F)cc1Cl (single isomer, unassigned) [Compound 110B, Methyl 4-(2-chloro-4-fluorophenyl)-6-(1-(oxetan-3-ylsulfonyl)-piperidin-4-yl)-2-(thiazol-2-yl)-1,4-dihydropyrimidine-5-carboxylate] | > 10 µM | 798 nM | – |
| COC(=O)C1=C(C2CCN(S(C)(=O)=O)CC2)NC(c2nccs2)=NC1c1cccc(F)c1Cl (single isomer, unassigned) [Compound 112B, Methyl 4-(2-chloro-3-fluorophenyl)-6-(1-(methylsulfonyl)-piperidin-4-yl)-2-(thiazol-2-yl)-1,4-dihydropyrimidine-5-carboxylate] | 8.2 µM | 950 nM | – |
| COC(=O)CCS(=O)(=O)N1CCC(C2=C(C(=O)OC)C(c3cccc(F)c3Cl)N=C(c3nccs3)N2)CC1 (single isomer, unassigned) [Compound 113Y, 4-(2-Chloro-3-fluoro-phenyl)-6-[1-(2-methoxycarbonyl-ethane-sulfonyl)-piperidin-4-yl]-2-thiazol-2-yl-1,4-dihydro-pyrimidine-5-carboxylic Acid Methyl Ester] | 11.8 µM | 966 nM | – |
| CNS(=O)(=O)N1CCC(C2=C(C(=O)OC)C(c3cccc(F)c3Cl)N=C(c3nccs3)N2)CC1 (single isomer, unassigned) [Compound 115B, 4-(2-Chloro-3-fluoro-phenyl)-6-(1-methylsulfamoyl-piperidin-4-yl)-2-thiazol-2-yl-1,4-dihydro-pyrimidine-5-carboxylic Acid Methyl Ester] | 19.1 µM | 342 nM | – |
| COC(=O)C1=C(C2CCN(S(=O)(=O)c3ccccn3)CC2)NC(c2nccs2)=NC1c1cccc(F)c1Cl (single isomer, unassigned) [Compound 116B, Methyl 4-(2-chloro-3-fluorophenyl)-6-(1-(pyridin-2-ylsulfonyl)-piperidin-4-yl)-2-(thiazol-2-yl)-1,4-dihydropyrimidine-5-carboxylate] | 71.3 µM | 207 nM | – |
| COC(=O)C1=C(C2CCN(S(C)(=O)=O)CC2)NC(c2nccs2)=NC1c1ccc(F)cc1Br (single isomer, unassigned) [Compound 120A, Methyl 4-(2-bromo-4-fluorophenyl)-6-(1-(methylsulfonyl)-piperidin-4-yl)-2-(thiazol-2-yl)-1,4-dihydropyrimidine-5-carboxylate] | 31.7 µM | – | 350 nM |
| COC(=O)C1=C(C2CCN(C(=O)CO)CC2)NC(c2nccs2)=NC1c1ccc(F)cc1Cl (single isomer, unassigned) [Compound 122B, Methyl 4-(2-chloro-4-fluorophenyl)-6-(1-(2-hydroxyacetyl)-piperidin-4-yl)-2-(thiazol-2-yl)-1,4-dihydropyrimidine-5-carboxylate] | 31.6 µM | 57 nM | – |
| COC(=O)C1=C(C2CCN(S(C)(=O)=O)CC2)NC(c2nccs2)=NC1c1ccc(Cl)c(F)c1 (single isomer, unassigned) [Compound 124B, 4-(4-Chloro-3-fluoro-phenyl)-6-(1-methanesulfonyl-piperidin-4-yl)-2-thiazol-2-yl-1,4-dihydro-pyrimidine-5-carboxylic Acid Methyl Ester] | 6.6 µM | 85 nM | – |
| COC(=O)C1=C([C@H]2CC[C@H](NS(C)(=O)=O)CC2)NC(c2nccs2)=NC1c1ccc(F)cc1Cl (single isomer, unassigned) [Compound 126B, Methyl 4-(2-chloro-4-fluorophenyl)-6-(trans-4-(methyl-sulfonamido)cyclohexyl)-2-(thiazol-2-yl)-1,4-dihydropyrimidine-5-carboxylate] | 31.8 µM | 343 nM | – |
| COC(=O)C1=C([C@H]2CC[C@@H](NS(C)(=O)=O)CC2)NC(c2nccs2)=NC1c1ccc(F)cc1Cl (single isomer, unassigned) [Compound 128D, Methyl 4-(2-chloro-4-fluorophenyl)-6-(cis-4-(methylsulfonamido)-cyclohexyl)-2-(thiazol-2-yl)-1,4-dihydropyrimidine-5-carboxylate] | 22.8 µM | 17 nM | – |
| COC(=O)C1=C(C2CN(S(=O)(=O)c3ccccc3)C2)NC(c2nccs2)=NC1c1ccc(F)cc1Cl (single isomer, unassigned) [Compound 130A, 6-(1-Benzenesulfonyl-azetidin-3-yl)-4-(2-chloro-4-fluoro-phenyl)-2-thiazol-2-yl-1,4-dihydro-pyrimidine-5-carboxylic acid methyl ester] | > 10 µM | 317 nM | – |
| CCOC(=O)C1=C([C@H]2CC[C@H](C(=O)NC)CC2)NC(c2nccs2)=NC1c1ccc(F)cc1Cl (single isomer, unassigned) [Compound 132A, trans-Ethyl 4-(2-chloro-4-fluorophenyl)-6-(4-(methylcarbamoyl)-cyclohexyl)-2-(thiazol-2-yl)-1,4-dihydropyrimidine-5-carboxylate] | 23.9 µM | 472 nM | – |
